The source of these data is ChEMBL document CHEMBL3856182, “How much successful are the medicinal chemists in modulation of SIRT1: A critical review” (Eur J Med Chem, 2016).

Usually IC50 stands for the concentration needed to halve the response being measured. What is called EC50 is the concentration giving half of the maximal effect. As usually defined, the GI50 is the concentration giving 50% growth inhibition.

Data set [1] has as its target T1, NAD-dependent protein deacetylase sirtuin-1 (Homo sapiens, UniProt Q96EB6).
T1 sequence (Q96EB6 whole entry): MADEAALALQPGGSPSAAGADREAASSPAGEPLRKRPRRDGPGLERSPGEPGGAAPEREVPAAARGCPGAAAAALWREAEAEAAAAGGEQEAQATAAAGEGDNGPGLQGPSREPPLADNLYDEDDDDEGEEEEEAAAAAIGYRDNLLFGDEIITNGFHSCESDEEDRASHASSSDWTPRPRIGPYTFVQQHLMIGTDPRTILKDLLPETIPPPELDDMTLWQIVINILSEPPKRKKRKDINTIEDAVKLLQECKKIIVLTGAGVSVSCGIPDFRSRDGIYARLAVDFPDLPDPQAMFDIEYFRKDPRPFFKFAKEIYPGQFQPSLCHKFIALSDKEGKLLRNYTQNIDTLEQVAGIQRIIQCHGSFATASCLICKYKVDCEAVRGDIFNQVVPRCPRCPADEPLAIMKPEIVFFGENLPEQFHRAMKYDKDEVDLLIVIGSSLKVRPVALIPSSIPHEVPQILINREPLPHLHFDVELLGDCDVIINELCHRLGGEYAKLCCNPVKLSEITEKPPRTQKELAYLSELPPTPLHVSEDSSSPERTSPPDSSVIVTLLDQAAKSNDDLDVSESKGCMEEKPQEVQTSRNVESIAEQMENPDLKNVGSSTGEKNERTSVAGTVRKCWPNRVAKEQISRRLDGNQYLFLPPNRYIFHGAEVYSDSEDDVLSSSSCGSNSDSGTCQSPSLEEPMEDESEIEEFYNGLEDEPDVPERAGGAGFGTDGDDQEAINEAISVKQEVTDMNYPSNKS
The data set can be described thus: Inhibition of human SIRT1 using biotinylated peptide with an acetylated FLAG sequence as substrate measured after 3 hr in presence of NAD+ by TR-FRET assay. For orientation: TR-FRET usually uses a lanthanide donor and a delayed reading to cut background.

Data set [2] concerns the target T2, NAD-dependent protein deacetylase sirtuin-2 (Homo sapiens, UniProt Q8IXJ6).
T2 sequence (Q8IXJ6 whole entry): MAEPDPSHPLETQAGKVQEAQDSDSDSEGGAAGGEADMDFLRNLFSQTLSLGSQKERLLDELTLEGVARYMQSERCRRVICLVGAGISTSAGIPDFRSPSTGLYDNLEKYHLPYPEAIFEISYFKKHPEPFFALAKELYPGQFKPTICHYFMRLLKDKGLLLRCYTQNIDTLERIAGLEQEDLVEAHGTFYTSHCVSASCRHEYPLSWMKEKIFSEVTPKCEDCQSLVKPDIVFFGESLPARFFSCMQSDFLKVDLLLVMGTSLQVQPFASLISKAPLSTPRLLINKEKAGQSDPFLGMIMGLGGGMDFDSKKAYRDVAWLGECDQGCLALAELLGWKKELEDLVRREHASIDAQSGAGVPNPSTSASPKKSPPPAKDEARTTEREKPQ
The data set can be described thus: Inhibition of human SIRT2 using biotin labeled histone H4 peptide with an acetylated lysine 4 as substrate measured after 1 hr by luminescence analysis.

The target in data set [3] is T1, NAD-dependent protein deacetylase sirtuin-1. The data set can be described thus: Inhibition of recombinant human GST-tagged SIRT1 overexpressed in Escherichia coli DH5alpha assessed as deacetylation activity using [3H]-MPSDKTIGG as substrate measured after overnight incubation by liquid scintillation counting method.
Data set [4] has as its target T2, NAD-dependent protein deacetylase sirtuin-2. As to the kind of experiment: Inhibition of recombinant human GST-tagged SIRT2 overexpressed in Escherichia coli DH5alpha assessed as deacetylation activity using [3H]-MPSDKTIGG as substrate measured after overnight incubation by liquid scintillation counting method.
Data set [5] addresses T1, NAD-dependent protein deacetylase sirtuin-1. The data set can be described thus: Activation of recombinant human SIRT1 assessed as increase in deacetylation of Fluor de Lys-SIRT1-specific substrate after 2 hrs by HTS assay.
For data set [6] the target is unchanged. The data set can be described thus: Inhibition of recombinant SIRT1 (unknown origin) assessed as deacetylation activity using acetylated p53 as substrate measured after 2 hrs by Fluor de Lys assay.
Data set [7] shares this target. As to the kind of experiment: Inhibition of SIRT1 (unknown origin) using acetylated lysine as substrate by Fluor de Lys assay.
Data set [8] has as its target T3, NAD-dependent protein deacetylase sirtuin-1 (Homo sapiens) (UniProt Q96EB6).
T3 sequence (whole entry): T1 sequence (Q96EB6 whole entry)
The data set can be described thus: Activation of recombinant human SIRT1 using TPE-GK(Ac)YDD as substrate at 50 uM by fluorescence assay relative to control.

The target in data set [9] is T1, NAD-dependent protein deacetylase sirtuin-1. As to the kind of experiment: Inhibition of human SIRT1 assessed as deacetylation activity preincubated with protein followed by addition of AMC-tagged Arg-His-Lys-Lys(Ac) (379 to 382 residues) as substrate measured after 45 mins in presence of NAD+ by fluorescence assay.
Data set [10] can be described thus: Cytotoxicity in human Caco2 cells assessed as growth inhibition measured after 48 hrs by MTT assay. Type of data set: functional. Particulars: Caco-2, 48 h. A general note: Tetrazolium assays rely on reduction of a dye to a coloured formazan, in cell work by metabolically active cells.
A short description of data set [11]: Cytotoxicity in human LNCAP cells assessed as growth inhibition measured after 48 hrs by MTT assay. Type of data set: functional.
Data set [12] is described as follows: Cytotoxicity in human MDA-MB-231 cells assessed as growth inhibition measured after 48 hrs by MTT assay. The format is functional. Particulars: MDA-MB-231, 48 h.
A short description of data set [13]: Cytotoxicity in human U937 cells assessed as growth inhibition measured after 48 hrs by MTT assay. The format is functional. Particulars: U-937, 48 h.
Data set [14] is described as follows: Cytotoxicity in HEK293 cells assessed as growth inhibition measured after 48 hrs by MTT assay. The format is toxicity, cell-based. The following applies: human.
The target of data set [15] is T2, NAD-dependent protein deacetylase sirtuin-2. The data set can be described thus: Inhibition of full-length human N-terminal His6-tagged SIRT2 expressed in Escherichia coli BL21 (DE3) assessed as inhibition of deacetylase activity using ZMAL as substrate measured after 4 hrs by Fluor de Lys assay.

On to `CCCCc1nc2c(=O)n(C)c(=O)nc-2n(C)n1`, for which the figures for the half-inhibitory concentration (IC50) in [1] and in data set [2] were 0.11 µM and more than 100 µM, respectively. Take `CC(C)=CCC[C@]1(C)[C@@H](CC=C(C)C)C[C@@]2(CC=C(C)C)C(=O)[C@]1(C(=O)C(C)C)C(=O)C(CC=C(C)C)=C2OCC(=O)O`: the figures for the IC50 in [3] and in [4] were 7 µM and 21 µM, respectively. For `COCCCn1c(N)c(C(=O)NC2CCCC2)c2nc3ccccc3nc21`, the concentration giving a half-maximal response (EC50) in [5] was less than 1 µM.

In the case of `Cc1ccc2[nH]c3c(c2c1)CCCC3C(=O)O` (stereo unspecified), the IC50 in data set [6] was found to be 3.1 µM.

Regarding `NC(=O)c1ccccc1Oc1ccccc1`, the IC50 in data set [7] is more than 100 µM. Regarding `COc1ccc2[nH]c3c(c2c1)CCCC3C(=O)O` (stereo unspecified), the IC50 in [6] worked out at 2.8 µM.

With `CC(C)=CCC/C(C)=C/C[C@@H]1C[C@]2(CC=C(C)C)C(=O)[C@@](CC=C(C)C)(C(=O)C(Cc3ccc(O)c(O)c3)=C2O)[C@@]1(C)CCC=C(C)C`, the figures for the concentration for half-maximal inhibition (IC50) in data set [3] and in data set [4] were 9 µM and 22 µM, respectively. As for `CN(C)/C=N/C(=O)C1CCCc2c1[nH]c1ccc(Cl)cc21` (stereo unspecified), the IC50 in [6] worked out at 0.149 µM. Consider `COc1cc2c(c(OC)c1OC)-c1c(cc(OC)c(OC)c1OC)C[C@H](C)[C@H](C)C2`, for which, in [8], the Activity was 28%.

With `Cc1ccc(-c2nc3c(=O)n(C)c(=O)nc-3n(C)n2)cc1`, the concentration for half-maximal inhibition (IC50) in data set [1] is 0.11 µM; in data set [2], more than 100 µM. With `CC(C)=CCC[C@]1(C)[C@@H](CC=C(C)C)C[C@]2(CC=C(C)C)C(=O)C(CC=C(C)C)=C(O)[C@@]1(C(=O)C(C)C)C2=O`, the IC50 in data set [3] is 15 µM; in data set [4], 28 µM. For `CCc1ccccc1-n1c(N)c(C(=O)NCC2CCCO2)c2nc3ccccc3nc21` (stereo unspecified), the EC50 in data set [5] was less than 1 µM. As for `Nc1c(S(=O)(=O)c2ccccc2)c2nc3ccccc3nc2n1-c1ccc(F)cc1`, the EC50 in data set [5] is less than 1 µM.

As to `Oc1ccccc1-c1nc2ccc(Cl)cn2c1NCc1ccc2c(c1)OCO2`, in data set [9], the half-maximal inhibitory concentration (IC50) worked out at 32 µM. Also, the concentration for 50% growth inhibition (GI50) in data set [10], in [11], in [12] and in data set [13] was less than 1 µM in each case. In data set [14], the GI50 at 48 h is less than 1 µM. As to `CC(C)=CCC[C@](C)(O[C@@H]1O[C@H](CO)[C@@H](O)[C@H](O)[C@H]1O)[C@H]1CC[C@]2(C)[C@@H]1[C@H](O)C[C@@H]1[C@@]3(C)CC[C@H](O)C(C)(C)[C@@H]3[C@@H](O)C[C@]12C`, the Activity in data set [8] stood at 28%. Regarding `Cn1ncnc2c(=O)n(C)c(=O)nc1-2`, the IC50 in data set [1] amounted to 0.87 µM; in data set [2], 14.4 µM.

As for `N#CC1=C(N)NC(SCC(=O)c2ccc(O)c(O)c2)=C(C#N)C1=C1C=CC(=O)C=C1`, in data set [9], the 50% inhibitory concentration (IC50) stood at 16.4 µM. In addition, the GI50 in data set [10], in [11], in data set [12] and in data set [13] was less than 1 µM in each case. The GI50 at 48 h in data set [14] is less than 1 µM. Turning to `CC(C)=CCC[C@](C)(O[C@@H]1O[C@H](CO[C@@H]2O[C@@H](CO)[C@H](O)[C@H]2O)[C@@H](O)[C@H](O)[C@H]1O)[C@H]1CC[C@]2(C)[C@@H]1[C@H](O)C[C@@H]1[C@@]3(C)CC[C@H](O[C@@H]4O[C@H](CO)[C@@H](O)[C@H](O)[C@H]4O[C@@H]4O[C@H](CO)[C@@H](O)[C@H](O)[C@H]4O)C(C)(C)[C@@H]3CC[C@]12C`, the Activity in [8] stood at 88%. In data set [7], `NC(=O)c1cccc(Nc2ccccc2)c1` had an IC50 of more than 100 µM. With `CC1=CCC(C(=O)/N=C2\CC=C(S(=O)(=O)O)c3cc(S(=O)(=O)O)cc(S(=O)(=O)O)c32)=C/C1=N/C(=O)C1=CC=C/C(=N\C(=O)/N=C2\C=CC=C(C(=O)/N=C3/CC(C(=O)/N=C4\CC=C(S(=O)(=O)O)c5cc(S(=O)(=O)O)cc(S(=O)(=O)O)c54)=CC=C3C)C2)C1`, the concentration for half-maximal inhibition (IC50) in data set [15] worked out at 1.15 µM. In the case of `O=C(O)c1cccc(NC(=O)c2ccc(N3C(=O)c4ccc(C(=O)Nc5cccc(C(=O)O)c5)cc4C3=O)cc2)c1`, the GI50 in data set [10], in data set [11], in data set [12] and in [13] was less than 1 µM throughout. Further, the GI50 at 48 h in [14] was less than 1 µM.
